In brackets after ≈: the same amount, converted by molar mass. Where two headings read alike, the source gives them in different places.
Tests used:
Zika Virus [1] = test: Zika virus cytopathic effect (CPE) inhibition, Vero 76, primary screen (Zika-089); assay type: cell-based; details: for EC50: Zika virus, MR766, Vero 76, primary
Zika Virus [2] = test: Zika virus yield reduction (VYR), Vero 76, secondary (Zika-094); assay type: cell-based; details: Visual (Virus yield reduction), MR766
Zika Virus [3] = test: Zika virus CPE inhibition (Neutral Red), Huh7, secondary (Zika-094); assay type: cell-based
Zika Virus [4] = test: Zika virus yield reduction (VYR), Huh7, secondary (Zika-094); assay type: cell-based; details: Huh-7, Visual (Virus yield reduction), MR766
Zika Virus [5] = test: Zika prevention, CPE inhibition (Neutral Red), Huh7, 4 h pre-incubation (Zika-138); assay type: cell-based; details: Zika virus, Huh-7, Neutral Red (Cytopathic effect), pre-incubated 4 hours prior to infection, read-out: EC50
Zika Virus [6] = test: Zika prevention, virus yield reduction (VYR), Huh7, 4 h pre-incubation (Zika-138); assay type: cell-based; details: for Virus Titer: 4 hr pre-incubation, Huh7 cells
Description: (§1) An experiment was carried out as specified in Example 8. In a Zika Prevention Trial, MPA was pre-incubated with human cells 4 hours or 24 hours before Zika virus infection.

Zika Virus [7] = test: Zika prevention, virus yield reduction (VYR), Huh7, 24 h pre-incubation (Zika-138); assay type: cell-based; details: for Virus Titer: 24 hr pre-incubation, Huh7 cells
Description: as §1

Zika Virus [8] = test: Zika prevention, CPE inhibition (Neutral Red), Vero 76, 4 h pre-incubation (Zika-138); assay type: cell-based; details: Zika virus, Neutral Red (Cytopathic effect), pre-incubated 4 hours prior to infection, read-out: EC50
Zika Virus [9] = test: Zika prevention, virus yield reduction (VYR), Vero 76, 4 h pre-incubation (Zika-138); assay type: cell-based; details: Zika virus, Visual (Virus yield reduction), pre-incubated 4 hours prior to infection, read-out: EC90
Zika Virus [10] = test: Zika prevention, CPE inhibition (Neutral Red), Vero 76, 24 h pre-incubation (Zika-138); assay type: cell-based; details: Zika virus, Neutral Red (Cytopathic effect), pre-incubated 24 hours prior to infection, read-out: EC50
[11] = test system: human norovirus (NV, GT1); test: Human norovirus replicon, RNA Hybridization, HG23, primary (16-21); assay type: cell-based
Excerpt: (§2) Secondary testing was done with human norovirus.

[12] = RNA Hybridization toxicity in HG23 cells (16-21); assay type: cell-based; details: human, HG23 cells
Excerpt: as §2

mouse norovirus (MNV-1) = test: Mouse norovirus CPE inhibition (NR), RAW264.7 (17-09); assay type: cell-based; details: Norovirus
[13] = test system: human norovirus (NV, GT1); test: Human norovirus replicon, qPCR, HG23, secondary (17-14); assay type: cell-based; details: Norovirus
Excerpt: as §2

[14] = NR toxicity in HG23 cells (17-14); assay type: cell-based; details: human, HG23 cells, NR (Tox)
Excerpt: as §2

[15] = test system: Influenza A virus H1N1 California/07/2009; test: microbe, parasite or virus in culture; assay type: cell-based
[16] = test system: Respiratory syncytial virus A2; test: microbe, parasite or virus in culture; assay type: cell-based
Adenovirus5 Adenoid75 = test: Adenovirus 5 CPE inhibition, A549 (ADV-0172); assay type: cell-based; details: for EC50: Human mastadenovirus C, A549, read-out: EC50
[17] = Toxicity in A549 cells (ADV-0172); assay type: cell-based; details: human, A549 cells
Lassa fever virus Josiah = test: organism not typed; assay type: cell-based
Powassan virus LB = test: microbe, parasite or virus in culture; assay type: cell-based; details: for EC50: Powassan virus, BHK
[18] = test system: Rift Valley fever virus MP-12; test: microbe, parasite or virus in culture; assay type: cell-based; details: for EC50: Rift Valley fever virus, Vero76
MDCK = details: Neutral Red (Toxicity)
Vero76 = details: African green monkey
in vitro [19] = details: dog
in vitro [20] = details: African green monkey
[21] = Cell Titer-Glo toxicity in C-33A cells (HPV16-15); details: human
[22] = Toxicity in Vero 76 cells, primary screen (Zika-089); details: monkey
[23] = Neutral Red toxicity in Huh7 cells, secondary (Zika-094); details: human
[24] = Neutral Red toxicity in Huh7 cells, 4 h pre-incubation (Zika-138); details: human
[25] = Neutral Red toxicity in Huh7 cells, 24 h pre-incubation (Zika-138); details: human
[26] = Neutral Red toxicity in Vero 76 cells, 4 h pre-incubation (Zika-138); details: monkey
[27] = Neutral Red toxicity in Vero 76 cells, 24 h pre-incubation (Zika-138); details: monkey
[28] = Vero 76, Neutral Red (Cytopathic effect)
[29] = Vero 76, Visual (Cytopathic effect)

Q: Which EC50 (Zika Virus [1]; [28]) does the source give for `COc1c(C)c2c(c(O)c1C/C=C(\C)CCC(=O)O)C(=O)OC2` [EP1601, 6-(4-hydroxy-6-methoxy-7-methyl-3-oxo-1,3-dihydroisobenzofuran-5-yl)-4-methyl-hex-4-enoic acid] here?
A: 0.15 µg/mL (≈ 0.468 µM)

Q: And the EC50 (Zika Virus [1]; [29])?
A: < 0.1 µg/mL

Q: What about the “activity against Zika Virus” value (Zika Virus [1]; three in vitro tests (Zika-A, Zika-B, Zika-C)) of the same compound?
A: active

Q: What about the EC90 (Zika Virus [2]) of the same compound?
A: 0.3 µg/mL (≈ 0.937 µM)

Q: What about the EC50 (Zika Virus [3]; Huh-7, Neutral Red (Cytopathic effect), MR766, Huh7, secondary) of the same compound?
A: 0.14 µg/mL (≈ 0.437 µM)

Q: And the EC50 (Zika Virus [3]; Huh-7, Zika virus, 'one of our tests' (test not specified), read-out: EC50)?
A: 0.049 µg/mL (≈ 0.153 µM)

Q: And the EC90 (Zika Virus [4])?
A: 0.088 µg/mL (≈ 0.275 µM)

Q: And the EC50 (Zika Virus [5])?
A: 0.17 µg/mL (≈ 0.531 µM)

Q: What about the “Virus Titer” value (Zika Virus [6]; MPA 0.1 μg/ml) of the same compound?
A: 4.5 Log10 CCID50/0.1 ml

Q: And the “Virus Titer” value (Zika Virus [6]; MPA 1 μg/ml)?
A: 4.5 Log10 CCID50/0.1 ml

Q: What about the “Virus Titer” value (Zika Virus [6]; MPA 10 μg/ml) of the same compound?
A: 4.5 Log10 CCID50/0.1 ml

Q: What about the “Virus Titer” value (Zika Virus [6]; MPA 32 μg/ml) of the same compound?
A: 4.5 Log10 CCID50/0.1 ml

Q: What about the “Virus Titer” value (Zika Virus [6]; MPA 100 μg/ml) of the same compound?
A: 0.67 Log10 CCID50/0.1 ml

Q: And the EC90 (Zika Virus [6]; Zika virus, Huh-7, Visual (Virus yield reduction), Huh7, pre-incubated 4 hours prior to infection, read-out: EC90)?
A: 42.7 µg/mL (≈ 133 µM)

Q: And the “mitigation of infection by Zika virus” value (Zika Virus [6]; given 4 hours before the infection)?
A: strongly mitigated the infection

Q: What about the “virus in VYR assay” value (Zika Virus [7]; Huh7 cells pre-incubated with drug for 24 hrs) of the same compound?
A: reduced virus to zero

Q: What about the “Virus Titer” value (Zika Virus [7]; MPA 0.1 μg/ml) of the same compound?
A: 4.5 Log10 CCID50/0.1 ml

Q: And the “Virus Titer” value (Zika Virus [7]; MPA 1 μg/ml)?
A: 3.5 Log10 CCID50/0.1 ml

Q: And the “Virus Titer” value (Zika Virus [7]; MPA 10 μg/ml)?
A: <.67 Log10 CCID50/0.1 ml

Q: What about the “Virus Titer” value (Zika Virus [7]; MPA 32 μg/ml) of the same compound?
A: <.67 Log10 CCID50/0.1 ml

Q: What about the “Virus Titer” value (Zika Virus [7]; MPA 100 μg/ml) of the same compound?
A: <.67 Log10 CCID50/0.1 ml

Q: What about the EC90 (Zika Virus [7]; Zika virus, Huh-7, Visual (Virus yield reduction), Huh7, pre-incubated 24 hours prior to infection, read-out: EC90) of the same compound?
A: 0.78 µg/mL (≈ 2.43 µM)

Q: What about the “prevention of infection by Zika virus” value (Zika Virus [7]; given 24 hours before infection) of the same compound?
A: completely prevent infection

Q: What about the EC50 (Zika Virus [8]) of the same compound?
A: > 100 µg/mL

Q: And the EC90 (Zika Virus [9])?
A: 17.8 µg/mL (≈ 55.6 µM)

Q: What about the EC50 (Zika Virus [10]) of the same compound?
A: 8 µg/mL (≈ 25 µM)

Q: What about the EC50 ([11]; Norovirus, GT1, HG23) of the same compound?
A: 0.151 µM

Q: And the EC90 ([11]; Norovirus, GT1, HG23)?
A: 1.3 µM

Q: What about the “activity against Norovirus” value ([11]; three in vitro tests (human and mouse norovirus)) of the same compound?
A: active

Q: What about the CC50 [12] of the same compound?
A: > 100 µM

Q: What about the EC50 (mouse norovirus (MNV-1)) of the same compound?
A: 0.123 µM

Q: What about the EC90 (mouse norovirus (MNV-1)) of the same compound?
A: 0.384 µM

Q: And the EC50 [13]?
A: 0.219 µM

Q: And the EC90 [13]?
A: 1.1 µM

Q: What about the CC50 [14] of the same compound?
A: 64 µM

Q: What about the “activity against pandemic Influenza A H1N1 (California/07/2009)” value [15] of the same compound?
A: highly active

Q: What about the EC50 ([15]; Influenza A virus, H1N1, MDCK) of the same compound?
A: < 0.1 µM

Q: What about the “activity against Respiratory Syncytial Virus” value [16] of the same compound?
A: highly active

Q: And the EC50 ([16]; human respiratory syncytial virus, MA104)?
A: < 0.1 µg/mL

Q: What about the “activity against Adenovirus 5” value (Adenovirus5 Adenoid75) of the same compound?
A: active

Q: What about the EC50 (Adenovirus5 Adenoid75; A549, Neutral Red (Cytopathic effect)) of the same compound?
A: 0.31 µg/mL (≈ 0.968 µM)

Q: What about the EC50 (Adenovirus5 Adenoid75; A549, Visual (Cytopathic effect)) of the same compound?
A: 0.32 µg/mL (≈ 0.999 µM)

Q: And the CC50 ([17]; Neutral Red (Toxicity))?
A: 12 µg/mL (≈ 37.5 µM)

Q: What about the CC50 ([17]; Visual (Toxicity)) of the same compound?
A: 15 µg/mL (≈ 46.8 µM)

Q: What about the “activity against Lassa Fever” value (Lassa fever virus Josiah) of the same compound?
A: active

Q: What about the EC50 (Lassa fever virus Josiah; Vero) of the same compound?
A: 0.2 µg/mL (≈ 0.624 µM)

Q: What about the “activity against Powassan” value (Powassan virus LB) of the same compound?
A: active

Q: And the EC50 (Powassan virus LB; Neutral Red (Cytopathic effect))?
A: 0.36 µg/mL (≈ 1.12 µM)

Q: And the EC50 (Powassan virus LB; Visual (Cytopathic effect))?
A: 0.32 µg/mL (≈ 0.999 µM)

Q: And the “activity against Rift Valley” value [18]?
A: active

Q: And the EC50 [18, 28]?
A: 4 µg/mL (≈ 12.5 µM)

Q: And the EC50 [18, 29]?
A: 3.1 µg/mL (≈ 9.68 µM)

Q: What about the CC50 (MDCK) of the same compound?
A: > 100 µM

Q: And the CC50 (Vero76)?
A: 17 µg/mL (≈ 53.1 µM)

Q: And the CC50 (in vitro [19])?
A: > 100 µM

Q: And the CC50 (in vitro [20])?
A: > 100 µg/mL

Q: What about the CC50 [21] of the same compound?
A: > 150 µM

Q: And the CC50 ([22]; CC50, Neutral Red (Toxicity))?
A: 14 µg/mL (≈ 43.7 µM)

Q: And the CC50 ([22]; CC50, Visual (Toxicity))?
A: > 100 µg/mL

Q: And the CC50 [23]?
A: 1.6 µg/mL (≈ 4.99 µM)

Q: And the CC50 [24]?
A: > 100 µg/mL

Q: And the CC50 [25]?
A: 1.4 µg/mL (≈ 4.37 µM)

Q: And the CC50 [26]?
A: > 100 µg/mL

Q: What about the CC50 [27] of the same compound?
A: 37 µg/mL (≈ 116 µM)

From US20250144066A1, “Prevention and Treatment of Parasitic Infections” (priority 2017, published 2025)
